Read-outs that look alike come from different tables or passages of the source.
How the values were obtained:
[1] = in vitro; details: PAMPA
Method: (§1) Afterwards, the acceptor filter plate was carefully placed on the donor plate to make the coated membrane touch both donor solution and acceptor buffer. […] Pe was calculated by the following expression: Pe = {−VdVa/[(Vd + Va)At]}ln (1-drugacceptor/drugequilibrium), where Vd is the volume of donor well, Va is volume in acceptor well, A is the filter area, t is the permeation time, drugacceptor is the absorbance obtained in the acceptor well and drugequilibrium is the theoretical equilibrium absorbance. Each compound was analysed at five wavelengths in four wells at least three independent runs, and the results were expressed as mean ± SD.

[2] = target: T1, eeAChE (Electrophorus electricus, UniProt O42275); assay: In vitro inhibition of eeAChE (Ellman method); format: biochemical, electric eel; details: for inhibition at 10 µM: read-out: eeAChE Inhibition (%), inhibitor at 10 μM
T1 construct: eeAChE (from electric eel); purchased Sigma-Aldrich (St. Louis, MO, USA); host or cells: electric eel
Method: (§2) The in vitro inhibitory activities of test compounds against AChE and BuChE were determined by the spectrophotometric method of Ellman[25]. […] For each assay, 160 μL of 1.5 mM DTNB, 50 μL of AChE (0.22 U/mL for eeAChE; 0.05 U/mL for hAChE) or eqBuChE (0.12 U/mL) were incubated with 10 μL of different concentrations of test compounds at 37 °C for 6 min.

[3] = from PAMPA-BBB Pe
Method: as §1

[4] = target: T2, eqBuChE (Equus caballus, UniProt P81908); assay: In vitro inhibition of eqBuChE (Ellman method); format: biochemical, equine; details: for inhibition at 10 µM: read-out: eqBuChE Inhibition (%)
T2 construct: eqBuChE (from equine serum); purchased Sigma-Aldrich (St. Louis, MO, USA); host or cells: equine serum
Method: as §2

[5] = target: T3, AChE-induced Aβ1-42 aggregation (Electrophorus electricus, UniProt O42275); assay: Inhibition of AChE-induced Aβ1-42 aggregation (ThT assay); format: biochemical; details: inhibitor 100 μM; thioflavin-T fluorescence
T3 construct: eeAChE (from electric eel); purchased eeAChE: Sigma-Aldrich (St. Louis, MO, USA); Aβ1-42: Royobiotech Co., Ltd (Shanghai, China)
Method: 1, 1, 1, 3, 3, 3-hexafluoro-2-propanol (HFIP) and Thioflavin T (ThT) were obtained from TCI (Shanghai) Development. β-Amyloid1-42 (Aβ1-42), supplied as trifluoroacetate salt, and eeAChE were purchased from Royobiotech Co., Ltd (Shanghai, China) and Sigma-Aldrich (St. Louis, MO, USA), respectively. For co-incubation experiments, aliquots of Aβ1-42 peptide and AChE in presence or absence of the test compounds were incubated for 48 h at 37 °C. […] The percent inhibition of the AChE-induced Aβ aggregation due to the presence of inhibitor was calculated by the following formula: 100 – (IFi/IFo*100), where IFi and IFo are the fluorescence intensities obtained for Aβ1-42 aggregation in the presence and in the absence of inhibitor, respectively. Each assay was run in triplicate and each reaction was repeated at least three independent times.

[6] = target: T4, self-induced Aβ1-42 aggregation (Homo sapiens, UniProt P05067); assay: Inhibition of self-induced Aβ1-42 aggregation (ThT assay); format: biochemical; details: read-out: Inhibition of Aβ1–42 aggregation (%) Self-induced
T4 construct: Aβ1-42 was obtained from Royobiotech Co., Ltd (Shanghai, China); purchased Royobiotech Co., Ltd (Shanghai, China)
Method: The inhibitory activities of compounds 4c-f and 9a-b on self-induced Aβ1-42 aggregation were also measured by the ThT assay. HFIP and ThT were purchased from TCI (Shanghai) Development. Aβ1-42 was obtained from Royobiotech Co., Ltd (Shanghai, China). The monomeric Aβ1-42 samples were prepared by HFIP and diluted with a 50 mM phosphate buffer (pH 7.4) to give a 25 μM solution. The test compound was dissolved in DMSO (250 μM) for storage and needed not to be diluted prior to use. […]. Then, 200 μL of 5 μM ThT in 50 mM glycine-NaOH buffer (pH 8.0) was added, and the percent inhibition was calculated by the method same as that of AChE-induced Aβ1–42 experiment.

[7] = target: hAChE (Homo sapiens, UniProt P22303); assay: In vitro inhibition of hAChE (Ellman method); format: biochemical; parameters: Acetylcholinesterase (AChE, from electric eel and human erythrocytes); purchased Sigma-Aldrich (St. Louis, MO, USA); host or cells: human erythrocytes
Method: as §2

[8] = means ± SD of three experiments

Chain of hAChE (P22303 32-617 isoform P22303-2 limits assumed): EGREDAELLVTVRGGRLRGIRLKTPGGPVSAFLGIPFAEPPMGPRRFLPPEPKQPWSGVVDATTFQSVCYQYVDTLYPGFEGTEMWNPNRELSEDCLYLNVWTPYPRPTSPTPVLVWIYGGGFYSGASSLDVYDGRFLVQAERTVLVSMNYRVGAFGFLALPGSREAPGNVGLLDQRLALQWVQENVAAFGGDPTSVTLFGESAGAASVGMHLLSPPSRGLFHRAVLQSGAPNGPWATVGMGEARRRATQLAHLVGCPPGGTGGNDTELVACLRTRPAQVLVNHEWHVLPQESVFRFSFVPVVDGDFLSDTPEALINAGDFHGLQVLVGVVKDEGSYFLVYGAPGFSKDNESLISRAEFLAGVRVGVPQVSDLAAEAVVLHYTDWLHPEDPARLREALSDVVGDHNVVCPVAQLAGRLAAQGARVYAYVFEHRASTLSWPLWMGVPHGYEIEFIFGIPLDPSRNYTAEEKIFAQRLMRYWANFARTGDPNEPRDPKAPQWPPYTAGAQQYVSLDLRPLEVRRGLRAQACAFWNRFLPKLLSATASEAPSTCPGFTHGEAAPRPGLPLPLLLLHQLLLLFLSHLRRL
T2 sequence (P81908 whole entry): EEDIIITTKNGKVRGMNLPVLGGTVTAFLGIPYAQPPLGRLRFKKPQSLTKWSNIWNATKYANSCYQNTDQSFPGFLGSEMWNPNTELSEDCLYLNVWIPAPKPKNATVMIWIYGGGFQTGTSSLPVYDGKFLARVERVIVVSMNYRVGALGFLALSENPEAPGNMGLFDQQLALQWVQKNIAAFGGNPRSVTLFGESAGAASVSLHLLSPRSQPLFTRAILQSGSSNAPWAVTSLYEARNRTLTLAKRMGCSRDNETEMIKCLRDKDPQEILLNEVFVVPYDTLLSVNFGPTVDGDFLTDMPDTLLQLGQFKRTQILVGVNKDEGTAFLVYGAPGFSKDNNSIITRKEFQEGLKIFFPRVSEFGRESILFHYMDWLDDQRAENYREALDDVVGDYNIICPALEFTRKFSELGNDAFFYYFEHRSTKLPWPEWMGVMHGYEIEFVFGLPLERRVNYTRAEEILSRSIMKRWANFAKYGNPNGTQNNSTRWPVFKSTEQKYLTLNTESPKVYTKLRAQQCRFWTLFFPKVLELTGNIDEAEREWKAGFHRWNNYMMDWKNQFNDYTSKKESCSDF
T1 sequence (O42275 24-633): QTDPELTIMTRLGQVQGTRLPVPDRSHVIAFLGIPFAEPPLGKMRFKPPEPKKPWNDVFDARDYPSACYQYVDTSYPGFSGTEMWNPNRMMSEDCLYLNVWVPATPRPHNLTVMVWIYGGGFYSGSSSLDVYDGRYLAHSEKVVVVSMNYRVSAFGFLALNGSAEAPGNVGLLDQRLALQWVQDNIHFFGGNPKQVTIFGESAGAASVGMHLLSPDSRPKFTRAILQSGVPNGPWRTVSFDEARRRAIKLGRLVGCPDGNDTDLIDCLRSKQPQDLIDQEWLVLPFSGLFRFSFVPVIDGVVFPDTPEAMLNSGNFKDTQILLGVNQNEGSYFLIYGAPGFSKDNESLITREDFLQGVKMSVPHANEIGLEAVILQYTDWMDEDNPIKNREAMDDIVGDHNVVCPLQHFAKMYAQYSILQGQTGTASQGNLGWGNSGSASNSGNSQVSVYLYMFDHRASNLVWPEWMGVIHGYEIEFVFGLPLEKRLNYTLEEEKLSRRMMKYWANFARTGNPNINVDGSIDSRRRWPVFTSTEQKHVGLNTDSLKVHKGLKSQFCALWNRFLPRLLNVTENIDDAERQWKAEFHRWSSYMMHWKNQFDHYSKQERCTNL
T3 sequence (O42275 24-633): as above
T4 sequence (P05067 672-713): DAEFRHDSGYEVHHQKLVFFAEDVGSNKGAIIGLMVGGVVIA

| Structure (SMILES) | Papp at 18 h, 25 μg/mL [1] | inhibition at 10 µM [2, 8] | Prediction of penetration into CNS [3] | inhibition at 10 µM [4] | IC50 [2] | inhibition at 100 µM [5] | inhibition at 25 µM [6] | IC50 [7] | fold less inhibitory activity than compound 4c on AChE ([2]; ratio of eeAChE IC50 values) | IC50 [4] | eeAChE Inhibition (%) ([2]; inhibitor at 10 μM, means ± SD of three experiments, 10 µM) | inhibition at 25 µM ([6]; inhibitor 25 μM, thioflavin-T fluorescence) |
| --- | --- | --- | --- | --- | --- | --- | --- | --- | --- | --- | --- | --- |
| O=c1ccc2ccc(OCCSC(=S)N3CCCCC3)cc2[nH]1 [4a, 2-((2-oxo-1,2-dihydroquinolin-7-yl)oxy)ethyl piperidine-1-carbodithioate] | 8.57 ± 1.23 ×10⁻⁶ cm/s | 45.3 ± 0.35% | CNS+ (CNS + is predicted as high BBB permeation with Pe (×10^6 cm/s) > 3.33) | 16.7 ± 2.36% |  |  |  |  |  |  |  |  |
| O=c1ccc2ccc(OCCCSC(=S)N3CCCCC3)cc2[nH]1 [4b, 3-((2-oxo-1,2-dihydroquinolin-7-yl)oxy)propyl piperidine-1-carbodithioate] | 8.78 ± 1.11 ×10⁻⁶ cm/s |  | CNS+ (CNS + is predicted as high BBB permeation with Pe (×10^6 cm/s) > 3.33) | 16.6 ± 4.01% | 3960 ± 710 nM |  |  |  |  |  |  |  |
| O=c1ccc2ccc(OCCCCCSC(=S)N3CCCCC3)cc2[nH]1 [4d, 5-((2-oxo-1,2-dihydroquinolin-7-yl)oxy)pentyl piperidine-1-carbodithioate] | 8.82 ± 1.34 ×10⁻⁶ cm/s |  | CNS+ (CNS + is predicted as high BBB permeation with Pe (×10^6 cm/s) > 3.33) | 20.9 ± 2.61% | 240 ± 20 nM | 24.1 ± 3.04% | 26 ± 3.01% | 570 ± 10 nM |  |  |  |  |
| O=c1ccc2ccc(OCCCCCCSC(=S)N3CCCCC3)cc2[nH]1 [4e, 6-((2-oxo-1,2-dihydroquinolin-7-yl)oxy)hexyl piperidine-1-carbodithioate] | 9.85 ± 0.98 ×10⁻⁶ cm/s |  | CNS+ (CNS + is predicted as high BBB permeation with Pe (×10^6 cm/s) > 3.33) | 17.5 ± 2.17% | 350 ± 20 nM | 20.3 ± 2.21% | 25.8 ± 1.43% | 380 ± 20 nM |  |  |  |  |
| CC1CCN(C(=S)SCCCCOc2ccc3ccc(=O)[nH]c3c2)CC1 [4f, 4-((2-oxo-1,2-dihydroquinolin-7-yl)oxy)butyl 4-methylpiperidine-1-carbodithio-ate] | 6.3 ± 0.86 ×10⁻⁶ cm/s |  | CNS+ (CNS + is predicted as high BBB permeation with Pe (×10^6 cm/s) > 3.33) | 37.2 ± 1.22% | 690 ± 220 nM | 12.1 ± 3.18% | 20.4 ± 3.22% | 1210 ± 330 nM | 3 fold |  |  |  |
| CC(C)C1CCN(C(=S)SCCCCOc2ccc3ccc(=O)[nH]c3c2)CC1 [4g, 4-((2-oxo-1,2-dihydroquinolin-7-yl)oxy)butyl 4-isopropylpiperidine-1-carbodithi-oate] | 7.14 ± 1.97 ×10⁻⁶ cm/s |  | CNS+ (CNS + is predicted as high BBB permeation with Pe (×10^6 cm/s) > 3.33) | 31.4 ± 3.15% | 9610 ± 1120 nM |  |  |  |  |  |  |  |
| O=c1ccc2ccc(OCCCCSC(=S)N3CCC(N4CCCCC4)CC3)cc2[nH]1 [4h, 4-((2-oxo-1,2-dihydroquinolin-7-yl)oxy)butyl [1,4′-bipiperidine]-1′-carbodithio-ate] | 6.42 ± 1.02 ×10⁻⁶ cm/s |  | CNS+ (CNS + is predicted as high BBB permeation with Pe (×10^6 cm/s) > 3.33) |  | 3800 ± 350 nM |  |  |  |  | 2000 ± 230 nM |  |  |
| O=c1ccc2ccc(OCCCCSC(=S)N3CCC(O)CC3)cc2[nH]1 [4i, 4-((2-oxo-1,2-dihydroquinolin-7-yl)oxy)butyl 4-hydroxypiperidine-1-carbodithio-ate] | 2.83 ± 0.65 ×10⁻⁶ cm/s | 20.2 ± 3.27% | CNS± (CNS ± is uncertain for BBB permeation with 1.51 < Pe (×10^6 cm/s) < 3.33) | 15.8 ± 2.45% |  |  |  |  |  |  |  |  |
| O=c1ccc2ccc(OCCCCSC(=S)N3CCC(CO)CC3)cc2[nH]1 [4j, 4-((2-oxo-1,2-dihydroquinolin-7-yl)oxy)butyl 4-(hydroxymethyl)piperidine-1-ca-rbodithioate] | 3.25 ± 0.82 ×10⁻⁶ cm/s | 14.5 ± 2.44% | CNS± (CNS ± is uncertain for BBB permeation with 1.51 < Pe (×10^6 cm/s) < 3.33) | 23.9 ± 2.03% |  |  |  |  |  |  |  |  |
| CN1CCN(C(=S)SCCCCOc2ccc3ccc(=O)[nH]c3c2)CC1 [4k, 4-((2-oxo-1,2-dihydroquinolin-7-yl)oxy)butyl 4-methylpiperazine-1-car-bodithioate] | 4.54 ± 0.84 ×10⁻⁶ cm/s | 23.1 ± 5.54% | CNS+ (CNS + is predicted as high BBB permeation with Pe (×10^6 cm/s) > 3.33) | 28.6 ± 3.44% |  |  |  |  |  |  |  |  |
| O=c1ccc2ccc(OCCCCSC(=S)N3CCOCC3)cc2[nH]1 [4l, 4-((2-oxo-1,2-dihydroquinolin-7-yl)oxy)butyl morpholine-4-carbodithioate] | 7.35 ± 1.05 ×10⁻⁶ cm/s | 12.3 ± 1.76% | CNS+ (CNS + is predicted as high BBB permeation with Pe (×10^6 cm/s) > 3.33) | 30.5 ± 4.11% |  |  |  |  |  |  |  |  |
| O=c1ccc2ccc(OCCCCSC(=S)N3CCCC3)cc2[nH]1 [4m, 4-((2-oxo-1,2-dihydroquinolin-7-yl)oxy)butyl pyrrolidine-1-carbodithioate] | 10 ± 2.63 ×10⁻⁶ cm/s | < 50% | CNS+ (CNS + is predicted as high BBB permeation with Pe (×10^6 cm/s) > 3.33) | 7.63 ± 0.92% |  |  |  |  |  |  | 31.43 ± 1.65% |  |
| Cc1cc(=O)[nH]c2cc(OCCCCSC(=S)N3CCCCC3)ccc12 [9a, 4-((4-methyl-2-oxo-1,2-dihydroquinolin-7-yl)oxy)butylpiperidine-1-carbodithioate] | 8.79 ± 2.1 ×10⁻⁶ cm/s |  | CNS+ (CNS + is predicted as high BBB permeation with Pe (×10^6 cm/s) > 3.33) | 18.3 ± 3.15% | 300 ± 120 nM | 14.2 ± 2.85% | 33.4 ± 4.85% | 760 ± 100 nM |  |  |  |  |
| Cc1c(C)c2ccc(OCCCCSC(=S)N3CCCCC3)cc2[nH]c1=O [9b, 4-((3,4-dimethyl-2-oxo-1,2-dihydroquinolin-7-yl)oxy)butylpiperidine-1-carbodithioate] | 8.67 ± 1.76 ×10⁻⁶ cm/s |  | CNS+ (CNS + is predicted as high BBB permeation with Pe (×10^6 cm/s) > 3.33) | 21.2 ± 1.6% | 340 ± 10 nM | 24.4 ± 3.03% | 35.3 ± 2.17% | 390 ± 10 nM |  |  |  |  |
| COc1cc(/C=C/C(=O)CC(=O)/C=C/c2ccc(O)c(OC)c2)ccc1O [Curcumin, reference compound] |  |  |  |  |  |  |  |  |  |  |  | 37.3 ± 2.76% |
| CC(=O)[C@H]1CC[C@H]2[C@@H]3CCC4=CC(=O)CC[C@]4(C)[C@H]3CC[C@]12C [Progesterone, reference compound] | 10.4 ± 1.9 ×10⁻⁶ cm/s |  |  |  |  |  |  |  |  |  |  |  |
